Test results reported in ChEMBL document CHEMBL1201862, “PubChem BioAssay data set” (2004).
Active and inactive are the calls of the source.

Columns and labels:
[1] = target: Eukaryotic translation initiation factor 4E (Mus musculus, UniProt P63073); assay: blockers of eIF4G binding by eIF4E – biochemical, TR-FRET, dose response (AID 855); type: functional;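 further: potency for disrupting eIF4E binding to eIF4GI seen as loss of FRET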
[2] = HIV-1 AD8 envelope cell-cell fusion blockers – cherry-pick, dose response (AID 652062); type: functional, cell-based;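 further: luciferase signal from cell-cell fusion driven by HIV-1 clade B AD8 Env; potency is for inhibitors of fusion seen as a drop in luminescence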
[3] = blockers of HIV-1 envelope-mediated cell-cell fusion – cherry-pick, dose response (AID 652057); type: functional, cell-based
[4] = target: T1, Short transient receptor potential channel 4 (Mus musculus, UniProt Q9QUQ5); assay: calcium entry via TRPC4 opening agents – cell-based, HEK293 TRPC4/mu-opioid, Fluo-4 calcium, dose response (AID 434937); type: functional
T1 sequence (Q9QUQ5 whole entry): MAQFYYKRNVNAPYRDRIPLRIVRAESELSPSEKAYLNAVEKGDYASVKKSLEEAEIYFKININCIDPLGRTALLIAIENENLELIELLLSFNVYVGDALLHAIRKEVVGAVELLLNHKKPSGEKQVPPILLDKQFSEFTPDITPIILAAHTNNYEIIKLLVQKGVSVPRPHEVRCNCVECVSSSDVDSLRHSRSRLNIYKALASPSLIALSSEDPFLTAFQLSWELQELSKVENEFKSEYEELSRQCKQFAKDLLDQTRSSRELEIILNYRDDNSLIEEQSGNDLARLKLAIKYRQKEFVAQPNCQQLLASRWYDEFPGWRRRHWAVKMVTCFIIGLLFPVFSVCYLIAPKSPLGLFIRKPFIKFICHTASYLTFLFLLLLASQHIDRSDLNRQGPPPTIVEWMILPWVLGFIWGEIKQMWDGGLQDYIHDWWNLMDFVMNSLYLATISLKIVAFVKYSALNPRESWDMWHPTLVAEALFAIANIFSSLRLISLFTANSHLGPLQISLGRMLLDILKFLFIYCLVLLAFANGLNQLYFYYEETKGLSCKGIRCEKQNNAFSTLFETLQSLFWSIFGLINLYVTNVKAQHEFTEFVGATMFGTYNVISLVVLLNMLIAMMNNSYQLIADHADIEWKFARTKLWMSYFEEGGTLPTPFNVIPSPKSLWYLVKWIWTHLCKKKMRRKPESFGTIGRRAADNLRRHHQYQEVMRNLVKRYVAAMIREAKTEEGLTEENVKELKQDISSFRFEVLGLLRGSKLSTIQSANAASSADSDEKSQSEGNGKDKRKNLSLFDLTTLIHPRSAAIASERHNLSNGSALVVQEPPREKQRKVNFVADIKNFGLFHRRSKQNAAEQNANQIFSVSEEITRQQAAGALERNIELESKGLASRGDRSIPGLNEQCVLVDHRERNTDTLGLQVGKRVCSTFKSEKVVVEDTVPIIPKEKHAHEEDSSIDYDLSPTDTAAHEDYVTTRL

[5] = viability loss in CEM21 cells – cell-based, CellTiter-Glo luminescence, cherry-picked, cytotoxicity control for viral fusion inhibitor project, dose response (AID 652042); type: functional;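 further: potency for signal decrease meaning cytotoxicity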
[6] = blockers of HIV-1 ZM109 envelope-driven cell-cell fusion – HeLa effector, CEM target cells, luciferase, cherry-pick, dose response (AID 652058); type: functional, cell-based;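 further: luciferase signal from HIV-1 Env mediated cell-cell fusion of effector and target cells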
[7] = off-target signal loss in HeLa-CEM21 co-culture – HeLa F-luc CTL cells, cherry-picked, counter-screen for HIV-1 Env fusion inhibitor project, dose response (AID 652040); type: functional, cell-based;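 further: potency for signal decrease marking cytotoxic or nonspecific inhibition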
[8] = target: T2, DNA repair protein RAD52 homolog (Homo sapiens, UniProt P43351); type: functional, biochemical
T2 sequence (P43351 whole entry): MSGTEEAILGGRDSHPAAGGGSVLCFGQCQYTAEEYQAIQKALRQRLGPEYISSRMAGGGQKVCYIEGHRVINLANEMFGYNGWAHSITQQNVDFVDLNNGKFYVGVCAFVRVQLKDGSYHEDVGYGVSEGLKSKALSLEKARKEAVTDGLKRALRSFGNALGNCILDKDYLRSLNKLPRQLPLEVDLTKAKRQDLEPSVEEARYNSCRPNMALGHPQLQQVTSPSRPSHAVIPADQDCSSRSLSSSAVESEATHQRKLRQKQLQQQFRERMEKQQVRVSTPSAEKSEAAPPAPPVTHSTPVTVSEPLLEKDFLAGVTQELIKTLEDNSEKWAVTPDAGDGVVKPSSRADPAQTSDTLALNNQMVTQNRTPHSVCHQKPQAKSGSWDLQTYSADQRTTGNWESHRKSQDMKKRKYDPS

[9] = target: T1, Short transient receptor potential channel 4; assay: block of DAMGO-driven TRPC4 calcium entry – cell-based, HEK293 TRPC4/mu-opioid, Fluo-4 calcium, dose response (AID 434942); type: functional;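 further: potency of inhibitors blocking the TRPC4 calcium response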
[10] = target: Nonstructural protein 1 (Influenza A virus, UniProt Q194T2); type: functional, Influenza A virus (A/California/07/2009(H1N1))
[11] = HEK-293T cell viability reduction – luminescence, B-cell screen hits, cytotoxicity control for BCR NF-kB inhibitor project, dose response (AID 489021); type: functional, cell-based;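 further: HEK-293T cells carrying an NF-kB luciferase reporter; cells exposed to compound for about 14 hours before viability readout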
[12] = target: T3, Rac GTPase-activating protein 1 (Homo sapiens, UniProt Q9H0H5); assay: blockers of MgcRacGAP-driven Rac1 GTP hydrolysis – biochemical, ADP Hunter fluorescence, primary and confirmatory, confirmation (AID 624330); type: functional
T3 sequence (Q9H0H5 whole entry): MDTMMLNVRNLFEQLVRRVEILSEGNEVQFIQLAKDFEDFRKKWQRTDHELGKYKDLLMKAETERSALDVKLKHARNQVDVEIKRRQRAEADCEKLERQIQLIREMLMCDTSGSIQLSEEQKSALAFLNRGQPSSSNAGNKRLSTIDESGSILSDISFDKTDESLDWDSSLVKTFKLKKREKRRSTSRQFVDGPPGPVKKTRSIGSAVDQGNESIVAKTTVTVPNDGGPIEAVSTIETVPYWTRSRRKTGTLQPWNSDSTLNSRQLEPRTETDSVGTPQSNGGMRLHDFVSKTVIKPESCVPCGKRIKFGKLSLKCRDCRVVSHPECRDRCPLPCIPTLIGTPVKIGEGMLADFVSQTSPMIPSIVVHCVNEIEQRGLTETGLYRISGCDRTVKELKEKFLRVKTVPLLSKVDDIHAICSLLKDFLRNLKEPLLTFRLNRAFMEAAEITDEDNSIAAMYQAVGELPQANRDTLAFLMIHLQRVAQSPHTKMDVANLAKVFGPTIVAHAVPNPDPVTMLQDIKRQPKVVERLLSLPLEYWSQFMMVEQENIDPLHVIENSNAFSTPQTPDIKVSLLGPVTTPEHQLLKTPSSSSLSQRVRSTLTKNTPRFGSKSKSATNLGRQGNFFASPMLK

Chain of Eukaryotic translation initiation factor 4E (P63073 whole entry, the tested form may be a part): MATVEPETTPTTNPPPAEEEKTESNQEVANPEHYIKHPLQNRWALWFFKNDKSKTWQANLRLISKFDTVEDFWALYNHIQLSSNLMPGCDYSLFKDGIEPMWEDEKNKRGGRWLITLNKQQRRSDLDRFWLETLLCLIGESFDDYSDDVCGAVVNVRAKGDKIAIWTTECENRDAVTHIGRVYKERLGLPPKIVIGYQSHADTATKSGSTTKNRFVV
Chain of Nonstructural protein 1 (Q194T2 whole entry): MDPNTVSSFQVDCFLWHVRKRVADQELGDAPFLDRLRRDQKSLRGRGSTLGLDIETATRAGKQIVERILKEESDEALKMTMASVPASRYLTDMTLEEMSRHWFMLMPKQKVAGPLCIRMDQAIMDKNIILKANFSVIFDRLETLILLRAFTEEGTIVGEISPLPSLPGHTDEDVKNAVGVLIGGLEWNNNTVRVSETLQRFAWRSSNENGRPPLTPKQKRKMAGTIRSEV

C=CCn1c(S)nnc1-c1ccco1
IC50 [1]: > 64 µM (inactive)

COc1ccc(C(CCNCc2ccc(N(C)C)cc2)c2ccccc2)cc1 (centres undefined)
AC50 [2]: 26.1 µM (active) | AC50 [3]: 4.13 µM (active) | EC50 [4]: 5.96 µM (active) | AC50 [5]: 18.2 µM (active) | AC50 [6]: 14.4 µM (active) | AC50 [7]: 17.5 µM (active)

CCOc1cc2c3c(c1)C(C)CC(C)(C)N3C(=O)C2=O (centres undefined)
AC50 [2]: 12.7 µM (active) | AC50 [3]: 8.22 µM (active) | AC50 [5]: 50.9 µM (active) | AC50 [6]: 6.91 µM (active) | AC50 [7]: 12.2 µM (active)

COC(=O)Cn1cnc2c(Cl)nc(F)nc21
AC50 [3]: 20.5 µM (active) | AC50 [5]: 47.3 µM (active) | AC50 [7]: 25.6 µM (active)

COc1ccc(Cl)c2sc(N(CCN(C)C)C(=O)c3ccc4c(c3)OCCO4)nc12
AC50 [8]: 9.01 µM (active)

CCOc1ccccc1CN1CCN(Cc2cccc3nonc23)CC1CCO (centres undefined)
EC50 [9]: 5.31 µM (active)

CC1(Oc2ccc3ccccc3c2)CCN(Cc2cccn2-c2nccs2)C1 (centres undefined)
AC50 [2]: 29.4 µM (active) | AC50 [3]: 10.9 µM (active) | AC50 [5]: 51.9 µM (active) | AC50 [6]: 12.3 µM (active) | AC50 [7]: 14.7 µM (active)

O=C(N/N=C/c1ccc(O)cc1O)c1ccncc1
IC50 [10]: 5.88 µM (active)

CN(C)CCCNc1nc2cc(-c3cnn(Cc4ccccc4)c3)sc2c(=O)n1C
AC50 [8]: 19.8 µM (active)

C/C(CC(=O)N(C(C)C)C(C)C)=N\NC(=O)COc1ccc(Cl)cc1Cl
EC50 [9]: 13.3 µM (active)

C=CCN1C(=O)CS/C1=N\c1cccc(O)c1
IC50 [1]: > 64 µM (inactive)

Oc1cc(O)cc(-c2cc3ccc(O)cc3o2)c1 [MORACIN M]
IC50 [11]: > 80 µM (inactive) | IC50 [12]: 23 µM (active)

O=C(N/N=C/c1ccccc1O)c1ccncc1 [SALINAZID]
IC50 [10]: 7.54 µM (active)
